One data set has as its system TNF-α. In words: Cytokine profile of BMDCs in vitro, TNF-α ELISA. The note with it: 1 μg/ml FVIII with 50 mM OPLS, 48 hours, n=4. It counts as cell-based, HA mice. Here is the method:
(§1) Generation of bone marrow derived dendritic cells (BMDC): Bone marrow was isolated from 6 to 8 week old naïve HA. Briefly, bone marrow was cultured in RPMI media supplemented with […] (low endotoxin), 2-mercaptoethanol, Pen/Strep and […] GMCSF. Media was changed on days 3, 6 and 8 of culture and DCs were used on day 9. BMDC are then harvested and used as needed. To verify the differentiation of bone marrow cells into DCs, CD11c surface expression was confirmed by flow cytometry using anti-CD11c-FITC antibody with appropriate isotope controls.
(§2) Effects of OPLS on cytokine profile of BMDCs in vitro: The effects of OPLS on cytokine secretion by dendritic cells were investigated. On day 9 BMDCs, generated as above, were treated with FVIII as an antigen in the presence of increasing dose of OPLS. Changes in production of pro-inflammatory cytokines TNF-α and IL12p70 as well as the regulatory cytokine TGF-β were monitored as a function of dose. BMDCs were exposed to 1 μg/ml FVIII with increasing dose of OPLS (0, 0.5, 1, 10, 25, 50 mM). 1 M stock of OPLS was prepared by adding the appropriate amount of OPLS directly to RPMI media, and pH was adjusted using sterile 3N and 1N NaOH. […] TGF-β, TNF-α and IL-12p70 concentrations were determined using standard ELISA (R&D System Inc. Minneapolis, Minn., USA or Invitrogen […], Calif.).
Background: ELISA stands for enzyme-linked immunosorbent assay.

For the next data set, the system named is TGF-β. The experiment in a line: Cytokine profile of BMDCs in vitro, TGF-β ELISA. It counts as cell-based, HA mice. As to conditions: 1 μg/ml FVIII with 0-50 mM OPLS, 48 hours, n=4. Here is the method:
as §1, §2

The next data set concerns anti-KLH IgG titer. The experiment in a line: 28-day repeat dose TDAR study, anti-KLH IgG. It counts as in vivo, CD-1 mice. The note with it: 28 daily doses, any OPLS dose. From the text: FIG. 20. Anti-KLH IgG titer levels obtained from a short term, repeat dose (28 daily doses) TDAR study conducted in CD-1 mice.
In a further data set the test system is anti-Ova antibody titers. In words: Effect of OPLS on immunogenicity of ovalbumin after SC administration. It counts as in vivo, SW mice. As to conditions: 5 mg OPLS with 1 μg Ova s.c. Here is the method:
Methods: 14 SW mice between 6 and 8 weeks of age were divided into 2 groups: group one received 1 μg OVA SC in the abdominal region. Group two received 1 μg OVA/5 mg OPLS SC in the abdominal region. This treatment was given one day 1, 8, 10 and 12. Three days after the last injection the animals were sacrificed. Blood was centrifuged at 7500 rpm for 5 min at 4° C. Plasma was then removed and stored at -80° C. until analysis Titers values were obtained using an anti-Ova IgG […] analysis kit as per the manufacturers instruction (alphadiagnostic international). Statistics was done on the arithmetic mean of the log transformed data, graphs are reported as geometric means. Non-responders were given the value of the plate specific factor for uniformity.

The next data set deals with lymphocyte subsets. In words: Lymphocyte subsets in peripheral blood after 21 daily doses of OPLS. The note with it: 21 daily doses of 25 mg/kg. It counts as in vivo, rhesus macaques. Here is the method:
FIG. 23. Effect of 21 daily doses of 25 mg/kg OPLS on lymphocyte subsets in peripheral blood of rhesus macaques. Samples were drawn from the animals at baseline (day 0), at an intermediate time point during treatment (day 8) and 1 day after the termination of dosing (day 22) and immunophenotyped using flow cytometry. […] (*p value<0.05).

The test system of another data set is IL-12p70. The experiment in a line: Cytokine profile of BMDCs in vitro, IL-12p70 ELISA. As to conditions: 1 μg/ml FVIII with 50 mM OPLS, 48 hours, n=4. It counts as cell-based, HA mice. Here is the method: as §1, §2
In the next data set the target is T1, FVIII (Homo sapiens, UniProt P00451).
T1 construct: Full length recombinant human FVIII (Baxter Biosciences, Carlsbad, Calif.) was obtained as a gift; purchased Baxter Biosciences (gift from the Western New York Hemophilia Foundation)
T1 sequence (P00451 20-2351): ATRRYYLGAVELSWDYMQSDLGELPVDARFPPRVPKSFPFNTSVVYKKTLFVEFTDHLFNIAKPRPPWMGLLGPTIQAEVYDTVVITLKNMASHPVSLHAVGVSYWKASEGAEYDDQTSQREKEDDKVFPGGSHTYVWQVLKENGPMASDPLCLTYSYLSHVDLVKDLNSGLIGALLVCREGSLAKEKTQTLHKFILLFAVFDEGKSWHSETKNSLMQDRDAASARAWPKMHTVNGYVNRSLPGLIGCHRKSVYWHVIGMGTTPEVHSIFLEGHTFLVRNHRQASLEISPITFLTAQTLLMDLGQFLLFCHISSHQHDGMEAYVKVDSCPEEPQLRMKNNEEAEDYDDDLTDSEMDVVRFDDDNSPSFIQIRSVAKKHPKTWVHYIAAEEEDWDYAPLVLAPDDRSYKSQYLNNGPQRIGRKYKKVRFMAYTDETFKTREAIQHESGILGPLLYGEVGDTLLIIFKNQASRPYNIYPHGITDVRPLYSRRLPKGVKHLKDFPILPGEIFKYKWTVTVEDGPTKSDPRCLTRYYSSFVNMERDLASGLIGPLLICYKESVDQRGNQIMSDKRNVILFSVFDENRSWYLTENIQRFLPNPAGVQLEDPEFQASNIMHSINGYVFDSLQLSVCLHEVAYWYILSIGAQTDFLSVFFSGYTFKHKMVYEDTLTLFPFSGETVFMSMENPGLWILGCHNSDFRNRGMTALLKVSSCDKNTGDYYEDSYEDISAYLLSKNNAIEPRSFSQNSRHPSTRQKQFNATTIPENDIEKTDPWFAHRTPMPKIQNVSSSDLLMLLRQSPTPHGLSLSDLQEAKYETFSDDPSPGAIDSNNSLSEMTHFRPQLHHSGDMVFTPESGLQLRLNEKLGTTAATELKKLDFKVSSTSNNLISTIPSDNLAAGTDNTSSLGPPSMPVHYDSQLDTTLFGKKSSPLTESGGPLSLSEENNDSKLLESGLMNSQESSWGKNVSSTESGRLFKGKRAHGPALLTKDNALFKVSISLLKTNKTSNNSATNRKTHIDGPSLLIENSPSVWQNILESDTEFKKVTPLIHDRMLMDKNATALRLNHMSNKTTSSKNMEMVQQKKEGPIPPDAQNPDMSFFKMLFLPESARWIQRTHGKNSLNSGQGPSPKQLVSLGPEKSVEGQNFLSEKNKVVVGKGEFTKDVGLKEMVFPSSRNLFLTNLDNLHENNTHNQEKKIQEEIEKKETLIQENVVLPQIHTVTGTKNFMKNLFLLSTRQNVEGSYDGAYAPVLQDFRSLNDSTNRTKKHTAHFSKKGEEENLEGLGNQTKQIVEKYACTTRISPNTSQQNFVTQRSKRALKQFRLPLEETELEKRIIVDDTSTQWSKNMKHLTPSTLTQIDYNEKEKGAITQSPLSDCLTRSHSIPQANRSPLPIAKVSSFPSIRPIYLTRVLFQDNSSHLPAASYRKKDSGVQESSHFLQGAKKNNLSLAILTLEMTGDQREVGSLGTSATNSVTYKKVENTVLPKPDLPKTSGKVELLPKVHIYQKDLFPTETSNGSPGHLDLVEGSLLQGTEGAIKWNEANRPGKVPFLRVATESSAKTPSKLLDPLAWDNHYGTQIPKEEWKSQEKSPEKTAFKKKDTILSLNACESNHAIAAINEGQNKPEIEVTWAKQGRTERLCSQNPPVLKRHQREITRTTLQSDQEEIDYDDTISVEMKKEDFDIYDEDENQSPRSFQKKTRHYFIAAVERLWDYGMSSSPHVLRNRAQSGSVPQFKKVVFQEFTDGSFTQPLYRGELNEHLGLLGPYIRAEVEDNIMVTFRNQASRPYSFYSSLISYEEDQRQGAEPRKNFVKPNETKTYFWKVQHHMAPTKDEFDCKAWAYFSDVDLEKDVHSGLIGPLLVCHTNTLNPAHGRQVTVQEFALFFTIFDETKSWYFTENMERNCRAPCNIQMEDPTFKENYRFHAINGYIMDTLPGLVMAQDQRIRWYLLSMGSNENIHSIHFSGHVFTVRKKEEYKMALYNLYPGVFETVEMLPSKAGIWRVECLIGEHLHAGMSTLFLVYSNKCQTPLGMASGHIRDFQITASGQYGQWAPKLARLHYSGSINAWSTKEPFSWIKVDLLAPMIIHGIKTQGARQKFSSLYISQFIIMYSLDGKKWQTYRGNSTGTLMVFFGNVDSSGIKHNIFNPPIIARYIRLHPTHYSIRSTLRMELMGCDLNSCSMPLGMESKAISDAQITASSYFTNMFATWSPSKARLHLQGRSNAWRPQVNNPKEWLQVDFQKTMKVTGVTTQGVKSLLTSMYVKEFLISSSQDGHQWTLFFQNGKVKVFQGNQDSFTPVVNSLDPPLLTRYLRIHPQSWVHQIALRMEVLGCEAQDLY
T1 sequence (P00451 20-1667 partner limits assumed): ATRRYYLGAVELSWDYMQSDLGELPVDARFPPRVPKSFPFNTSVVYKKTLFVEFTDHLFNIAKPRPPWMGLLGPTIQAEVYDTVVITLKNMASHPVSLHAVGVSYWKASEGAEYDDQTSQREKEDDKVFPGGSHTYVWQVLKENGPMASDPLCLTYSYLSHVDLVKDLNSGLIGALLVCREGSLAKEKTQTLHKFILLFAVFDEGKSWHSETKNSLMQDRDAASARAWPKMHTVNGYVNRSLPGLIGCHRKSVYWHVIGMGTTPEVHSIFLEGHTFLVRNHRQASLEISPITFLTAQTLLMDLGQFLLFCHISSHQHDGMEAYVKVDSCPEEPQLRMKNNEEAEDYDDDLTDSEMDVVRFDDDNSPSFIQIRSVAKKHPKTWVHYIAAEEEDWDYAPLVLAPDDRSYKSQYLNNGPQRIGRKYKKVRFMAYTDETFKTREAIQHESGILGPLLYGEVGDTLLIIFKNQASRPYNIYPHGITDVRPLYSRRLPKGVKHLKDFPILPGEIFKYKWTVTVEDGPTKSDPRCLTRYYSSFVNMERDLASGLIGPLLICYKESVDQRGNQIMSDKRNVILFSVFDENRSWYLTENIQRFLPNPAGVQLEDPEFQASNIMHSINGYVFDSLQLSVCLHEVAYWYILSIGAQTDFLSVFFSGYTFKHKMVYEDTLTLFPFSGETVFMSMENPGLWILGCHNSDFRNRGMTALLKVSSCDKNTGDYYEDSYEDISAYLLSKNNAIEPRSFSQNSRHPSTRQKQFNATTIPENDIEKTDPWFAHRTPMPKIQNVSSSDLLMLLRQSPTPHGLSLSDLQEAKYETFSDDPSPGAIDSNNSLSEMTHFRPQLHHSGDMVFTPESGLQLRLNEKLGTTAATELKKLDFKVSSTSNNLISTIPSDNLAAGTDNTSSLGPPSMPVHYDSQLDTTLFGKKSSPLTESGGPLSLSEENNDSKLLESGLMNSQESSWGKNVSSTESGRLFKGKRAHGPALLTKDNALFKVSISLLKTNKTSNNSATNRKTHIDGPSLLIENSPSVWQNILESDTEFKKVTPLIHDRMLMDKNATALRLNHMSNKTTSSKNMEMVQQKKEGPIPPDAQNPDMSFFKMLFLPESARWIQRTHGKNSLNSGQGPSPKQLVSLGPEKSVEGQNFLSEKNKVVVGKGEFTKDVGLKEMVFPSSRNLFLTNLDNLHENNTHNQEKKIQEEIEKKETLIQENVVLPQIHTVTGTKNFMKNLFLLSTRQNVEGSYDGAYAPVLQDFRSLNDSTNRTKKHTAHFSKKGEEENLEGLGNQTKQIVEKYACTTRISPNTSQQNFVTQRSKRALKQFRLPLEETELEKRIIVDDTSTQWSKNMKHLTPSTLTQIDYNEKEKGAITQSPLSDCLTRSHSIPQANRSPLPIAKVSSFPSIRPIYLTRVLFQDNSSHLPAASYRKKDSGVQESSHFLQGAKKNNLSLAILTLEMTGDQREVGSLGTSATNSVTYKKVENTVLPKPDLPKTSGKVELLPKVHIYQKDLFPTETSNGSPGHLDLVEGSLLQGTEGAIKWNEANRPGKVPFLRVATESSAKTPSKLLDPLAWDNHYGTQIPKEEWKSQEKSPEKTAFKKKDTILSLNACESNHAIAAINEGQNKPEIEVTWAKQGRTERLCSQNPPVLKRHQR
The experiment in a line: Binding of OPLS to FVIII by fluorescence spectroscopy. Here is the method: (§3) The binding of OPLS to several therapeutic proteins was evaluated using fluorescence spectroscopy (FIG. 2).

In a further data set the target is T2, GAA (Homo sapiens, UniProt P10253).
T2 construct: Full length recombinant rhGAA was produced in Human Kidney Embryo Cells for our use by Creative Biomart; purchased Creative Biomart (Shirley, N.Y.); host or cells: Human Kidney Embryo Cells
The experiment in a line: Binding of OPLS to GAA by fluorescence spectroscopy. As to conditions: spectroscopic titration. Here is the method: as §3

Data set [1] relates to anti-FVIII antibody titers. The experiment in a line: FVIII-specific tolerance with OPLS, OPDS or Dex, rechallenge with free FVIII (FIG. 11). The note with it: s.c. co-administration with FVIII, then s.c. free FVIII.
Data set [2] in a line: Plasma creatine kinase and injection site after 28 daily s.c. injections of OPLS. It counts as in vivo, CD-1 mice. From the text:
FIG. 22. Plasma Creatine Kinase (CK: an enzyme with high expression in myocytes, elevation of plasma CK is an indication of damage to muscle tissue) activity levels after 28 daily s.c. injections of OPLS to CD-1 mice.

A short description of data set [3]: Plasma chemistry markers after 28 daily injections of OPLS. It counts as in vivo, CD-1 mice. The note with it: up to highest dose, 1 day after dosing. From the text: FIG. 21. Effect of 28 daily injections of a range of OPLS doses on plasma chemistry markers of CD-1 mice. Samples were collected from animals 1 day after the termination of dosing.

Turning to `N[C@@H](COP(=O)(O)O)C(=O)O` [OPLS, O-Phospho-L-Serine], the “TNF-α production by BMDC” value in the data set on TNF-α was “substantial reduction”. Also, the “TGF-β production by BMDC” value in the data set with TGF-β is listed as “dose dependent increase”. Besides, the “Anti-KLH IgG titer levels vs vehicle” value in the data set with anti-KLH IgG titer is given as “No statistical significance”. For the same compound, the “Anti-Ova antibody titers vs Ova alone” value in the data set with anti-Ova antibody titers is given as “lower”. The “% of B-cells” value with lymphocyte subsets is recorded as “transient increase”. In addition, in the data set on lymphocyte subsets (days 0, 8, 22), the “Lymphocyte subsets, baseline vs post treatment” value is “no significant change”. Further, the “IL-12p70 production by BMDC” value with IL-12p70 is listed as “total shut down”. The Kd at FVIII (fluorescence titration, FIG. 2, read-out: Dissociation constant (Kd) of OPLS binding to FVIII) came out at 8.4 µM. In addition, the “Binding affinity of FVIII for OPLS” value at FVIII (spectroscopic titration) is on record as “highest affinity”. Besides, at GAA, the “Binding affinity of GAA for OPLS” value is listed as “lowest affinity”. The “FVIII-specific hypo-responsiveness upon rechallenge” value in [1] is given as “hypo-responsiveness”. In addition, in [2], the “Plasma creatine kinase activity vs vehicle” value is “No statistical significance”. Moreover, in data set [2] (macroscopic evaluation), the “Injection site pathology at necropsy” value is “No visible injection site pathology”. For the same compound, the “Impact on renal and hepatic function (plasma chemistry markers)” value in data set [3] is recorded as “no impact”.

By Kd is commonly meant a measure of binding affinity in units of concentration.
